Measured values from EP0044212B1, “Herbicidal o-alkylsulfonyloxy- and o-alkylsulfonylamino-benzenesulfonamides” (E.I. DU PONT DE NEMOURS AND COMPANY, priority 1980, dated 1982).

Assays:
Alfalfa = experiment: Test F over-the-top soil/foliage treatment; assay type: in vivo; design: scale not given here; settings: soil/foliage spray, ~14 days
Experimental: (§1) The test chemicals, dissolved in a non-phytotoxic solvent, were applied in an overall spray to the foliage and surrounding […] of selected plant species. […] Approximately fourteen days after treatment, all species were visually compared to untreated controls and rated for response to treatment.
(§2) All plant species were seeded in Woodstown sandy loam soil and grown in a greenhouse. The following species were grown in soil contained in plastic pots (25 cm diameter by 13 cm deep): soybeans, cotton, alfalfa, corn, rice, wheet, sorghum, velvetleaf (Abutilon theophrasti), sesbania (Sesbania exaltata), Cassia (Cassia tora), morningglory (Ipomoea hederacea), jimsonweed (Datura stramonium), cocklebur (Xanthium pensylvanicum), crabgrass (Digitaria spp.), nutsedge (Cyperus rotundus), barnyardgrass (Echinochloa crusgalli), giant foxtail (Setaria faberii) and wild oats (Avena fatua). The following species were grown in soil in a paper cup (12 cm diameter by 13 cm deep): sunflower, sugarbeets, and mustard. All plants were sprayed approximately 14 days after planting.

Sorghum = experiment: Test F over-the-top soil/foliage treatment; assay type: in vivo; design: scale not given here; settings: soil/foliage spray, ~14 days
Experimental: as §1, §2

Sugarbeets [1] = experiment: Test F over-the-top soil/foliage treatment; assay type: in vivo; settings: soil/foliage spray; 0.007 kg/ha; ~14 days
Experimental: as §1, §2

Mustard = experiment: Test F over-the-top soil/foliage treatment; assay type: in vivo; settings: soil/foliage spray; 0.007 kg/ha; ~14 days
Experimental: as §1, §2

Sunflower = experiment: Test F over-the-top soil/foliage treatment; assay type: in vivo; settings: soil/foliage spray; 0.007 kg/ha; ~14 days
Experimental: as §1, §2

Corn [2] = experiment: Test F over-the-top soil/foliage treatment; assay type: in vivo; settings: soil/foliage spray, ~14 days
Experimental: as §1, §2

Cocklebur = experiment: Test B pre-emergence on Fallsington silt loam; assay type: in vivo, Xanthium pensylvanicum; settings: 28 days
Text: (§3) Two plastic bulb pans were filled with fertilized and limed Fallsington silt loam soil. One pan was planted with corn, sorghum, Kentucky bluegrass and several grassy weeds. The other pan was planted with cotton, soybeans, purple nutsedge (Cyperus rotundus), and several broadleaf weeds. The following grassy and broadleaf weeds were planted: crabgrass (Digitaria sanguinalis), barnyardgrass (Echinochloa crusgalli), wild oats (Avena fatua), johnsongrass (Sorghum halepense), dallisgrass (Paspalum dilatatum), giant foxtail (Setaria faberii), cheatgrass (Bromus secalinus), mustard (Brassica arvensis), cocklebur (Xanthium pensylvanicum), pigweed (Amaranthus retroflexus), morningglory (Ipomoea hederacea), cassia (Cassia tora), teaweed (Sida spinosa), velvetleaf (Abutilon theophrasti), and jimsonweed (Datura stramonium). A 12.5 cm diameter plastic pot was also filed with prepared soil and planted with rice and wheat. Another 12.5 cm pot was planted with sugarbeets. The above four containers were treated pre- emergence with several test compounds within the scope of the invention.
(§4) Twenty-eight days after treatment, the plants were evaluated and visually rated for response to the chemical treatments utilizing the rating system described previously for Test A. The data are summarized in Table B.

Nutsedge [3] = experiment: Test F over-the-top soil/foliage treatment; assay type: in vivo, Cyperus rotundus; design: scale not given here; settings: soil/foliage spray, ~14 days
Experimental: as §1, §2

Barnyardgrass [4] = experiment: Test B pre-emergence on Fallsington silt loam; assay type: in vivo, Echinochloa crusgalli; settings: 28 days
Text: as §3, §4

Wheat [5] = experiment: Test F over-the-top soil/foliage treatment; assay type: in vivo, wheet; design: scale not given here; settings: soil/foliage spray, ~14 days
Experimental: as §1, §2

Barnyardgrass [6] = experiment: Test F over-the-top soil/foliage treatment; assay type: in vivo, Echinochloa crusgalli; design: scale not given here; settings: soil/foliage spray, ~14 days
Experimental: as §1, §2

Wild Oats [7] = experiment: Test B pre-emergence on Fallsington silt loam; assay type: in vivo, Avena fatua; design: scale not given here; settings: 28 days
Text: as §3, §4

Sugarbeets [8] = experiment: Test B pre-emergence on Fallsington silt loam; assay type: in vivo; design: scale not given here; settings: 28 days
Text: as §3, §4

Wheat [9] = experiment: Test B pre-emergence on Fallsington silt loam; assay type: in vivo; design: scale not given here; settings: 28 days
Text: as §3, §4

Corn [10] = experiment: Test B pre-emergence on Fallsington silt loam; assay type: in vivo; design: scale not given here; settings: 28 days
Text: as §3, §4

Dallisgrass = experiment: Test B pre-emergence on Fallsington silt loam; assay type: in vivo, Paspalum dilatatum; design: scale not given here; settings: 28 days
Text: as §3, §4

Giant Foxtail = experiment: Test F over-the-top soil/foliage treatment; assay type: in vivo, Setaria faberii; design: scale not given here; settings: soil/foliage spray, ~14 days
Experimental: as §1, §2

Soybean = experiment: Test B pre-emergence on Fallsington silt loam; assay type: in vivo, soybeans; settings: 28 days
Text: as §3, §4

Jimsonweed = experiment: Test F over-the-top soil/foliage treatment; assay type: in vivo, Datura stramonium; settings: soil/foliage spray; 0.003 kg/ha; ~14 days
Experimental: as §1, §2

Morningglory = experiment: Test B pre-emergence on Fallsington silt loam; assay type: in vivo, Ipomoea hederacea; settings: 28 days
Text: as §3, §4

Nutsedge [11] = experiment: Test B pre-emergence on Fallsington silt loam; assay type: in vivo, Cyperus rotundus; settings: 28 days
Text: as §3, §4

Ky. bluegrass = experiment: Test B pre-emergence on Fallsington silt loam; assay type: in vivo, Kentucky bluegrass; design: scale not given here; settings: 28 days
Text: as §3, §4

Wild Oats [12] = experiment: Test F over-the-top soil/foliage treatment; assay type: in vivo, Avena fatua; design: scale not given here; settings: soil/foliage spray, ~14 days
Experimental: as §1, §2

Johnsongrass = experiment: Test B pre-emergence on Fallsington silt loam; assay type: in vivo, Sorghum halepense; design: scale not given here; settings: 28 days
Text: as §3, §4

Crabgrass [13] = experiment: Test B pre-emergence on Fallsington silt loam; assay type: in vivo, Digitaria sanguinalis; design: scale not given here; settings: 28 days
Text: as §3, §4

Cassia = experiment: Test B pre-emergence on Fallsington silt loam; assay type: in vivo, Cassia tora; settings: 28 days
Text: as §3, §4

Cheatgrass = experiment: Test B pre-emergence on Fallsington silt loam; assay type: in vivo, Bromus secalinus; settings: 0.007 kg/ha, 28 days
Text: as §3, §4

Crabgrass [14] = experiment: Test F over-the-top soil/foliage treatment; assay type: in vivo, Digitaria spp.; design: scale not given here; settings: soil/foliage spray, ~14 days
Experimental: as §1, §2

Sesbania = experiment: Test F over-the-top soil/foliage treatment; assay type: in vivo, Sesbania exaltata; design: scale not given here; settings: soil/foliage spray, ~14 days
Experimental: as §1, §2

## Cc1cc(C)nc(NC(=O)NS(=O)(=O)c2ccccc2OS(C)(=O)=O)n1 [Compound 3, N-[(4,6-dimethylpyrimidin-2-yl)aminocarbonyl]-2-hydroxybenzenesulfonamide, methanesulfonate]
Alfalfa; 0.007 kg/ha
  Alfalfa response rating: 7G
Alfalfa; 0.015 kg/ha
  Alfalfa response rating: 8C
Alfalfa; 0.06 kg/ha
  Alfalfa response rating: 9C
Sorghum; 0.015 kg/ha
  Sorghum response rating: 9C
Sorghum; 0.06 kg/ha
  Sorghum response rating: 10C
Sugarbeets [1]
  Sugarbeets response rating: 10C
Mustard
  Mustard response rating: 10C
Sunflower
  Sunflower response rating: 10C
Corn [2]; 0.007 kg/ha
  Corn response rating: 9G
Corn [2]; 0.06 kg/ha
  Corn response rating: 10C
Cocklebur; 0.007 kg/ha
  Cocklebur response rating: 0
Cocklebur; 0.015 kg/ha
  Cocklebur response rating: 0
Cocklebur; 0.03 kg/ha
  Cocklebur response rating: 7G
Nutsedge [3]; 0.003 kg/ha
  Nutsedge response rating: 5G
Nutsedge [3]; 0.007 kg/ha
  Nutsedge response rating: 7G
Barnyardgrass [4]; 0.007 kg/ha
  Barnyardgrass response rating: 2G
Barnyardgrass [4]; 0.015 kg/ha
  Barnyardgrass response rating: 2G
Wheat [5]; 0.003 kg/ha
  Wheat response rating: 3G
Wheat [5]; 0.007 kg/ha
  Wheat response rating: 6G
Wheat [5]; 0.015 kg/ha
  Wheat response rating: 1C
Wheat [5]; 0.06 kg/ha
  Wheat response rating: 8C
Barnyardgrass [6]; 0.015 kg/ha
  Barnyardgrass response rating: 9C
Barnyardgrass [6]; 0.06 kg/ha
  Barnyardgrass response rating: 10C
Wild Oats [7]; 0.007 kg/ha
  Wild Oats response rating: 0
Wild Oats [7]; 0.015 kg/ha
  Wild Oats response rating: 0
Wild Oats [7]; 0.03 kg/ha
  Wild Oats response rating: 10C
Wild Oats [7]; 0.12 kg/ha
  Wild Oats response rating: 10C
Sugarbeets [8]; 0.015 kg/ha
  Sugarbeets response rating: 4G
Sugarbeets [8]; 0.03 kg/ha
  Sugarbeets response rating: 10C
Sugarbeets [8]; 0.12 kg/ha
  Sugarbeets response rating: 10C
Wheat [9]; 0.007 kg/ha
  Wheat response rating: 0
Wheat [9]; 0.015 kg/ha
  Wheat response rating: 0
Wheat [9]; 0.03 kg/ha
  Wheat response rating: 5G
Corn [10]; 0.007 kg/ha
  Corn response rating: 0
Corn [10]; 0.015 kg/ha
  Corn response rating: 0
Corn [10]; 0.03 kg/ha
  Corn response rating: 10C
Corn [10]; 0.12 kg/ha
  Corn response rating: 10C
Dallisgrass; 0.007 kg/ha
  Dallisgrass response rating: 0
Dallisgrass; 0.015 kg/ha
  Dallisgrass response rating: 3G
Dallisgrass; 0.03 kg/ha
  Dallisgrass response rating: 6G
Giant Foxtail; 0.003 kg/ha
  Giant Foxtail response rating: 0
Giant Foxtail; 0.007 kg/ha
  Giant Foxtail response rating: 0
Soybean; 0.007 kg/ha
  Soybean response rating: 0
Soybean; 0.015 kg/ha
  Soybean response rating: 0
Jimsonweed
  Jimsonweed response rating: 0
Morningglory; 0.007 kg/ha
  Morningglory response rating: 3G
Morningglory; 0.015 kg/ha
  Morningglory response rating: 3G
Morningglory; 0.03 kg/ha
  Morningglory response rating: 8G
Nutsedge [11]; 0.007 kg/ha
  Nutsedge response rating: 0
Nutsedge [11]; 0.015 kg/ha
  Nutsedge response rating: 0
Ky. bluegrass; 0.007 kg/ha
  Ky. bluegrass response rating: 0
Ky. bluegrass; 0.015 kg/ha
  Ky. bluegrass response rating: 2G
Ky. bluegrass; 0.03 kg/ha
  Ky. bluegrass response rating: 10C
Wild Oats [12]; 0.003 kg/ha
  Wild Oats response rating: 4G
Wild Oats [12]; 0.007 kg/ha
  Wild Oats response rating: 5G
Wild Oats [12]; 0.06 kg/ha
  Wild Oats response rating: 10C
Johnsongrass; 0.007 kg/ha
  Johnsongrass response rating: 0
Johnsongrass; 0.015 kg/ha
  Johnsongrass response rating: 3G
Johnsongrass; 0.03 kg/ha
  Johnsongrass response rating: 10C
Johnsongrass; 0.12 kg/ha
  Johnsongrass response rating: 10C
Crabgrass [13]; 0.007 kg/ha
  Crabgrass response rating: 0
Crabgrass [13]; 0.015 kg/ha
  Crabgrass response rating: 0
Crabgrass [13]; 0.03 kg/ha
  Crabgrass response rating: 5G
Crabgrass [13]; 0.12 kg/ha
  Crabgrass response rating: 6G
Cassia; 0.007 kg/ha
  Cassia response rating: 0
Cassia; 0.015 kg/ha
  Cassia response rating: 0
Cheatgrass
  Cheatgrass response rating: 0
Crabgrass [14]; 0.003 kg/ha
  Crabgrass response rating: 0
Crabgrass [14]; 0.015 kg/ha
  Crabgrass response rating: 0
Sesbania; 0.015 kg/ha
  Sesbania response rating: 9C
Sesbania; 0.06 kg/ha
  Sesbania response rating: 9C
